The data set deals with cluster headache attacks. Kind of data set: Double-blind randomized trial of treatment of cluster headache attacks in hospitalized patients. In kind it is in vivo. How it is done:
Six consenting patients, suffering from cluster headache, were hospitalized. Two presented with a chronic state (more than one year) while the other four were in an attack stage at the moment of entering hospital. The patients received no other pharmaceuticals during the four days prior to commencing the study.
In each patient attacks lasted an average of 1-2 hours.
At the beginning of the attack, 10 minutes after the onset of pain, the patients received one of the following treatments:
500 mcg Somatostatin in 50 ml physiological solution, i.v.;
1 ml physiological solution i.m.;
50 ml physiological solution i.v.;
250 mcg Ergotamine Tartrate in 1 ml physiological solution i.m.
Duration of venous infusion was 20 minutes (50 drops per min.), and was started simultaneously with the i.m. injection. Treatments and patients were randomized and the trial was carried out in double blind.
In total, 9 attacks were treated for each patient, who received treatments (a) (b) or (c) 3 times; in this way, each treatment was used 18 times.
Pain intensity was ascertained every 10 minutes on a visible scale. Values were recorded on the ordinate against the time which was recorded on the abscissa.
3 parameters were used for statistical assessment; maximum intensity of pain expressed in arbitrary units; duration of pain expressed in minutes; area below the curve expressed in arbitrary units. During infusion with Somatostatin, blood pressure and pulse rates were recorded every 10 minutes for an hour.

Setting [1] is: versus physiological solution, Somatostatin 500 mcg i.v. infusion or Ergotamine Tartrate 250 mcg i.m.

Counter-ions that a name gives are not always drawn.

As for `CN1C[C@H](C(=O)N[C@]2(C)O[C@@]3(O)[C@@H]4CCCN4C(=O)[C@H](Cc4ccccc4)N3C2=O)C=C2c3cccc4[nH]cc(c34)C[C@H]21` [Ergotamine, Ergotamine Tartrate], under “Somatostatin 500 mcg i.v. infusion or Ergotamine Tartrate 250 mcg i.m.”, the “Reduction of pain duration as compared with placebo” value was determined as 41%. Further, the Maximum pain intensity (Somatostatin 500 mcg i.v. infusion or Ergotamine Tartrate 250 mcg i.m., physiological solution 7.1±0.3) is 6.2±0.3 arbitrary units. For the same molecule, for the setting “Somatostatin 500 mcg i.v. infusion or Ergotamine Tartrate 250 mcg i.m., physiological solution 43.8±6.2”, the “Area under the pain curve” value came to 23.3±3.1 arbitrary units. Where the note is “cluster headache patients, Somatostatin 500 mcg i.v. infusion over 20 min or Ergotamine Tartrate 250 mcg i.m., 18 attacks per treatment, physiological solution 93±10”, the Duration of pain was 55 ± 8 min. For the same molecule, under setting [1], the “Reduction of maximum pain intensity” value turned out to be 13% and the “Reduction of the pain area” value stood at 47%.
`C[C@H](N)C(=O)NCC(=O)N[C@H]1CSSC[C@@H](C(=O)O)NC(=O)[C@H](CO)NC(=O)[C@H]([C@@H](C)O)NC(=O)[C@H](Cc2ccccc2)NC(=O)[C@H]([C@@H](C)O)NC(=O)[C@H](CCCCN)NC(=O)[C@H](Cc2c[nH]c3ccccc23)NC(=O)[C@H](Cc2ccccc2)NC(=O)[C@H](Cc2ccccc2)NC(=O)[C@H](CC(N)=O)NC(=O)[C@H](CCCCN)NC1=O` [Somatostatin]: where the note is “500 mcg i.v. infusion, recorded every 10 minutes for an hour”, the “Variations in blood pressure or pulse rates during infusion” value is on record as “nor were there significant variations”. Also, the “Incidence of side-effects as compared with Ergotamine” value (human, in vivo) is listed as “minor incidence of side-effects”.

These data come from patent publication US4493830A, “Method for the treatment of idiopathic headache attacks, in particular migraine and cluster headache” (Istituto Farmacologico Serono of Rome, priority 1983, dated 1985).
